From patent publication US20190328869A1, “IMMUNOTHERAPEUTIC PRODUCT AND MDSC MODULATOR COMBINATION THERAPY” (Transgene SA, priority 2016, published 2019)

Tests used:
anti-HBc antibodies = assay: Anti-HBc antibody level by ELISA in HBV-persistent mice; type: in vivo, C57BL/6J mice; settings: serum 1/2000, up to day 76; sildenafil 20 mg/kg/day D31-59 or D48-76
From the text: Graphs A-F illustrate anti-HBc antibody levels determined respectively in individual mice of the six study groups 1-6. Individual mice are shown as thin line and the group mean titers as bold dotted black line. In all graphs the Y-axis indicates the anti-HBc levels (OD450) and the X-axis the time (number of days post-AAV2/8-HBV injection). Time points of immunization (D36, D43, D50) are shown by a dashed line and the period of sildenafil treatment is shown by a horizontal bar on the top of the graph.
The HBV persistent mice used in the study were described by Dion et al. (2013, J Virol, 87(10):5554-63). The model is based on the introduction in mice of an adeno-associated virus (AAV) encoding for a full length HBV genome (AAV2/8-HBV) and causing the production of infectious HBV particles in mouse livers. This allows the analysis of HBV-specific viral parameters (HBsAg, HBeAg, HBcAg and viremia) as well as immunological read-outs (ICS, ELISpot or humoral immune responses). […]
96-well Immulon 4HBX plates (Thermo Scientific) were coated overnight at +4° C. with 100 μL of recombinant HBc (Prospec) diluted to 1 μg/mL in BupH Carbonate-Bicarbonate buffer (Thermo Scientific Cat#28382). […] Ten minutes later, reaction was stopped by adding of 100 μL per well of 1N HCl and optic density was measured at 450 nm with Tecan Infinity 200 reader. […]

HBV RNA (AAV2/8-HBV) = assay: Serum HBV RNA by RT-qPCR in HBV-persistent mice; type: in vivo, C57BL/6J mice; settings: sildenafil only 5 mg/kg/day (group b), over the experiment
Method: The graph illustrates the median level of HBV RNA determined in the serum of 6 mice per group (groups a, b, e and f) treated with sildenafil at 5 mg/kg/day (group b) or with AdTG18201 alone (group e) or with a combination of AdTG18201 and sildenafil (at 5 mg/kg/day, group f). The control group a is untreated. The Y-axis indicates the median HBV RNA level (log 10 copies/mL) and the X-axis the time (number of days post-AAV2/8-HBV injection). Time points of AdTG18201 immunization (D36, D43, D50) are shown by a dashed line and the period of sildenafil treatment (from D31 to 59) is shown by a horizontal bar on the X axis.
HBV DNA/RNA extraction was performed using the MagMax-96 viral RNA isolation kit from Ambion according to manufacturer's protocol. Briefly, 50 μL of serum was added to 20 μL of reconstituted RNA/DNA binding beads. Plate was shaken for 1 minute on a thermomixer (Eppendorf Thermomixer compact) at 600-700 rpm. Then, 130 μL of lysis/binding solution, spiked with qPCR kit internal extraction control DNA, were added before additional shaking for 10 minutes. Beads were captured on a magnetic stand for 3 minutes and after 4 washes the supernatant was discarded. Residual washing solution was removed by drying the beads (shaking of the plate for 3 minutes at 900 rpm). Then, 50 μL of elution buffer was added (shaking of the plate for 3 minutes at 900 rpm). […]

For CCCc1nn(C)c2c(=O)nc(-c3cc(S(=O)(=O)N4CCN(C)CC4)ccc3OCC)[nH]c12 [sildenafil, 1-[[3-(4,7-dihydro-1-methyl-7-oxo-3-propyl-1H-pyrazolo[4,3-d]pyrimidin-5-yl)-4-ethoxyphenyl]sulfonyl]-4-methylpiperazine], the “anti-HBc antibodies induction (OD450)” value (anti-HBc antibodies) was “no anti-HBc antibodies were induced” and the “median level of viral RNA” value (HBV RNA (AAV2/8-HBV)) was “around 4.5 log 10 copies/mL serum”.
